In the supplement of paper PMC11061612:

Tests used:
Assay in all cases: combination Emax (second highest fraction inhibited in the dose matrix, 72 h); higher = more inhibition; extreme values may be limits of the assay
DSH1 (Bladder Carcinoma) = tested on: DSH1 (Bladder Carcinoma)
Outline: (§1)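 Cell lines grown in DMEM/F12 or RPMI with 10% FBS were plated in 1536-well plates and held 24 hours at 37°C, 5% CO2 before 72 hours of exposure to two-drug dose matrices, with DMSO typically at 0.2%. CellTiter-Glo 2.0 luminescence gave viability, which was converted to inhibition. Vehicle wells were set to 0 and blank wells to 1. Combination Emax is the second-highest inhibition in the matrix, and Bliss excess is the observed combination effect minus the expected EA + EB − EA·EB, where EA and EB are the single-agent effects.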

SK-N-FI (Neuroblastoma) = tested on: SK-N-FI (Neuroblastoma)
Outline: as §1

ES7 (Ewing's Sarcoma) = tested on: ES7 (Ewing's Sarcoma)
Outline: as §1

[1] = tested on: KARPAS-620 (Plasma Cell Myeloma)
Outline: as §1

[2] = tested on: COR-L95 (Small Cell Lung Carcinoma)
Outline: as §1

[3] = tested on: KATOIII (Gastric Carcinoma)
Outline: as §1

[4] = tested on: OCI-AML2 (Acute Myeloid Leukemia)
Outline: as §1

[5] = tested on: TE-5 (Esophageal Squamous Cell Carcinoma)
Outline: as §1

[6] = tested on: MDA-MB-231 (Breast Carcinoma)
Outline: as §1

[7] = tested on: HT-29 (Colorectal Carcinoma)
Outline: as §1

[8] = tested on: MDA-MB-157 (Breast Carcinoma)
Outline: as §1

[9] = tested on: DB (B-Cell Non-Hodgkin's Lymphoma)
Outline: as §1

[10] = tested on: DOV13 (Ovarian Carcinoma)
Outline: as §1

[11] = tested on: NCI-H1299 (Non-Small Cell Lung Carcinoma)
Outline: as §1

[12] = tested on: NCI-H211 (Small Cell Lung Carcinoma)
Outline: as §1

[13] = tested on: U-266 (Plasma Cell Myeloma)
Outline: as §1

[14] = tested on: SW1783 (Low Grade Glioma)
Outline: as §1

[15] = tested on: SW1990 (Pancreatic Carcinoma)
Outline: as §1

[16] = tested on: KARPAS-1106P (B-Cell Non-Hodgkin's Lymphoma)
Outline: as §1

[17] = tested on: IHH-4 (Thyroid Gland Carcinoma)
Outline: as §1

Structure (SMILES) | combination Emax (DSH1 (Bladder Carcinoma)) | combination Emax (SK-N-FI (Neuroblastoma)) | combination Emax (ES7 (Ewing's Sarcoma)) | combination Emax [1] | combination Emax [2] | combination Emax [3] | combination Emax [4] | combination Emax [5] | combination Emax [6] | combination Emax [7] | combination Emax [8] | combination Emax [9] | combination Emax [10] | combination Emax [11] | combination Emax [12] | combination Emax [13] | combination Emax [14] | combination Emax [15] | combination Emax [16] | combination Emax [17]
CN(CCO)CC[C@H](CSc1ccccc1)Nc1ccc(S(=O)(=O)NC(=O)c2ccc(N3CCC([C@@H](O)c4ccccc4-c4ccc(Cl)cc4)CC3)cc2)cc1S(=O)(=O)C(F)(F)F [AZD4320] + Nc1ccn([C@@H]2O[C@H](CO)[C@@H](O)C2(F)F)c(=O)n1 [Gemcitabine] (first compound max 1 µM, 7x7, partner max 0.3 µM) | 0.965 | 0.378 | 0.997 | 1 | 1 | 0.473 | 1 | 0.875 | 0.662 | 0.733 | 0.674 | 1 | 1 | 0.482 | 1 | 0.857 | 0.911 | 0.627 | 0.943 | 1
N#Cc1cnc(Nc2cc(NC[C@H]3CNCCO3)c(C(F)(F)F)cn2)cn1 [SRA737] + O=c1[nH]cc(F)c(=O)[nH]1 [5-Fluorouracil] (first compound max 10 µM, 7x7, partner max 20 µM) | 0.414 | 0.601 | 0.82 | 0.414 | 0.232 | 0.565 | 1 | 0.24 | 0.271 | 0.696 | 0.926 | 0.236 | 0.347 | 0.448 | 0.8 | 0.633 | 0.318 | 0.515 | 0.881 | 0.934
C[C@@H](Oc1cc(-c2cnn(C3CCNCC3)c2)cnc1N)c1c(Cl)ccc(F)c1Cl [Crizotinib] + CC1=C(C(=CC=C1)Cl)NC(=O)C2=CN=C(S2)NC3=CC(=NC(=N3)C)N4CCN(CC4)CCO [Dasatinib] (first compound max 10 µM, 7x7, partner max 2 µM) | 0.437 | 0.422 | 0.883 | 0.835 | 0.354 | 0.731 | 0.826 | 0.56 | 0.94 | 0.881 | 0.303 | 0.711 | 1 | 0.734 | 0.964 | 0.499 | 0.784 | 0.255 | 0.954 | 0.875
CN(CCO)CC[C@H](CSc1ccccc1)Nc1ccc(S(=O)(=O)NC(=O)c2ccc(N3CCC([C@@H](O)c4ccccc4-c4ccc(Cl)cc4)CC3)cc2)cc1S(=O)(=O)C(F)(F)F [AZD4320] + CC(=O)O[C@H]1C(=O)[C@@]2(C)[C@H]([C@H](OC(=O)c3ccccc3)[C@]3(O)C[C@H](OC(=O)[C@H](O)[C@@H](NC(=O)c4ccccc4)c4ccccc4)C(C)=C1C3(C)C)[C@]1(OC(C)=O)CO[C@@H]1C[C@@H]2O [Paclitaxel] (first compound max 1 µM, 7x7, partner max 3 µM) | 1 | 0.739 | 1 | 1 | 1 | 0.803 | 1 | 0.968 | 0.984 | 0.885 | 0.86 | 1 | 1 | 0.892 | 1 | 0.966 | 0.875 | 0.957 | 0.97 | 0.999
O=C(c1cc(Cc2n[nH]c(=O)c3ccccc23)ccc1F)N1CCN(C(=O)C2CC2)CC1 [Olaparib] + COc1nnc2ccc(N3CCC(c4ccc(OCCN5CCN(C)C(=O)[C@H]5C)cc4)CC3)nn12 [AZD5153] (first compound max 10 µM, 7x7, partner max 1 µM) | 0.647 | 0.489 | 0.944 | 0.666 | 0.455 | 0.4 | 0.983 | 0.347 | 0.626 | 0.658 | 0.438 | 0.74 | 0.455 | 0.637 | 0.992 | 0.291 | 0.319 | 0.195 | 0.791 | 0.535
CN(CCO)CC[C@H](CSc1ccccc1)Nc1ccc(S(=O)(=O)NC(=O)c2ccc(N3CCC([C@@H](O)c4ccccc4-c4ccc(Cl)cc4)CC3)cc2)cc1S(=O)(=O)C(F)(F)F [AZD4320] + CS(=O)(=O)CCNCc1ccc(-c2ccc3ncnc(Nc4ccc(OCc5cccc(F)c5)c(Cl)c4)c3c2)o1 [Lapatinib] (first compound max 1 µM, 7x7, partner max 10 µM) | 1 | 0.578 | 0.984 | 1 | 1 | 0.586 | 1 | 0.888 | 0.951 | 0.928 | 0.328 | 1 | 1 | 0.244 | 1 | 0.701 | 0.883 | 0.302 | 0.401 | 0.268
O=C(c1cc(Cc2n[nH]c(=O)c3ccccc23)ccc1F)N1CCN(C(=O)C2CC2)CC1 [Olaparib] + Cc1c2c(nn1C)CSCc1cc(n(C)n1)CSc1cc(c3ccccc3c1)OCCCc1c(C(=O)O)n(C)c3c-2c(Cl)ccc13 [AZD5991] (first compound max 10 µM, 7x7, partner max 1 µM) | 0.692 | 0.211 | 0.942 | 1 | 0.395 | 0.356 | 0.953 | 0.0405 | 0.161 | 0.0739 | 0.655 | 0.994 | 0.216 | 0.0533 | 0.957 | 0.846 | 0.0425 | 0.238 | 0.919 | 0.174
CS(=O)(=O)CCNCc1ccc(-c2ccc3ncnc(Nc4ccc(OCc5cccc(F)c5)c(Cl)c4)c3c2)o1 [Lapatinib] + NC1(c2ccc(-c3nc4ccn5c(=O)[nH]nc5c4cc3-c3ccccc3)cc2)CCC1 [MK-2206] (first compound max 10 µM, 7x7, partner max 10 µM) | 1 | 0.461 | 0.938 | 0.928 | 0.904 | 0.44 | 0.912 | 0.728 | 0.729 | 0.95 | 0.273 | 0.944 | 0.867 | 0.407 | 0.944 | 0.352 | 0.395 | 0.256 | 0.666 | 0.92
CC1(C)CCC(CN2CCN(c3ccc(C(=O)NS(=O)(=O)c4ccc(NCC5CCOCC5)c([N+](=O)[O-])c4)c(Oc4cnc5[nH]ccc5c4)c3)CC2)=C(c2ccc(Cl)cc2)C1 [Venetoclax] + CS(=O)(=O)CCNCc1ccc(-c2ccc3ncnc(Nc4ccc(OCc5cccc(F)c5)c(Cl)c4)c3c2)o1 [Lapatinib] (first compound max 1 µM, 7x7, partner max 10 µM) | 0.747 | 0.223 | 0.613 | 0.981 | 0.677 | 0.291 | 1 | 0.218 | 0.17 | 0.731 | 0.172 | 0.949 | 0.166 | 0.125 | 1 | 0.254 | 0.207 | 0.174 | 0.419 | 0.175
C[C@@H]1COCCN1c1cc(C2([S@](C)(=N)=O)CC2)nc(-c2ccnc3[nH]ccc23)n1 [AZD6738] + C1CC(C1)(C(=O)[O-])C(=O)[O-].N.N.[Pt+2] [Carboplatin] (first compound max 10 µM, 7x7, partner max 10 µM) | 0.725 | 0.601 | 0.777 | 0.399 | – | 0.424 | 0.951 | 0.541 | 0.576 | 0.766 | 0.889 | 0.435 | 0.818 | 0.508 | 0.61 | 0.316 | 0.447 | 0.422 | 0.658 | 0.773
C[C@@H](Nc1cc(F)cc(F)c1)c1cc(C(=O)N(C)C)cc2c(=O)cc(N3CCOCC3)oc12 [AZD8186] + C1CN(CCC1(C(=O)N[C@@H](CCO)C2=CC=C(C=C2)Cl)N)C3=NC=NC4=C3C=CN4 [AZD5363] (first compound max 10 µM, 7x7, partner max 10 µM) | 0.327 | 0.335 | 0.509 | 0.767 | 0.225 | 0.0505 | 0.473 | 0.35 | 0.281 | 0.449 | 0.264 | 0.0629 | 0.28 | 0.314 | 0.406 | 0.138 | 0.479 | 0.188 | 0.755 | 0.227
N#Cc1cnc(Nc2cc(NC[C@H]3CNCCO3)c(C(F)(F)F)cn2)cn1 [SRA737] + C=CCn1c(=O)c2cnc(Nc3ccc(N4CCN(C)CC4)cc3)nc2n1-c1cccc(C(C)(C)O)n1 [AZD1775] (first compound max 10 µM, partner max 1 µM) | 0.682 | 0.722 | 0.829 | 0.779 | 0.299 | 0.392 | 1 | 0.482 | 0.807 | 0.827 | 0.955 | 0.87 | – | 0.674 | 0.971 | 0.599 | 0.467 | 0.507 | 0.913 | 0.825
